# Test results from US3973021A, “2-[2-(5-Nitro-2-furyl)vinyl]-4-(phydroxyanilino)quinazoline as a bactericide” (Diamond Shamrock Corporation, priority 1975, dated 1976).
# What was measured:
# Escherichia coli = test: Bactericide test (agar streak, growth inhibition rated 0/50/100); type: cell-based
# Excerpt: (§1) Test formulations were examined for bactericidal and/or bacteriostatic activity against the test organisms shown in Tables A and B. These organisms were chosen as being representative of commercially important pathogens affecting animal agriculture. The antibiotic chlortetracycline was chosen as a positive control, since it has a broad spectrum of activity against a large number of organisms, and its activity can be used for comparative purposes.
# (§2) Basic test formulations of the product of Examples I, II, III, and of chlortetracycline were prepared by dissolving 16 mg (0.016 g) in 2.0 ml of stock emulsifier solution (0.25% Triton X-155 in acetone by volume) and making each solution up to 50 ml with deionized water. The concentration of the test compound in the basic formulation was 320 ppm. Lower concentrations of the test compound were obtained by diluting the basic formulation with a 4% solution of the stock emulsifier in deionized water so that each dilution in the series differed only in test compound content.
# (§3) Nutrient-tryptic soy agar (NTA) consisting of 2.0% Difco Bactoagar 0.8% nutrient broth (Difco), and 0.5% tryptic soy broth (Difco) was prepared and sterilized by autoclaving. A 2 ml aliquot of each test formulation was added to 8 ml of molten NTA. This mixture was then plated in a sterile polystyrene petri dish (100 × 15 mm). After the agar was set, suspensions of each of the test organisms were simultaneously streaked onto the surface of the agar. The inoculated plates were incubated for 48 hr. at 28°C. The inhibition of growth of each organism was rated by visual comparison with the organism developing on non-treated agar. Growth inhibition reported as percent control was rated in three categories as follows: 0% control, growth equivalent to that on non-treated agar; 50% control, sparse development and separated colonies; 100% control, no visible growth or development of colonies.
# (§4) Test formulations of the product of Example IV were examined for bactericidal and/or bacteriostatic activity against the test organisms shown in Table B using the Bactericide Test described in Example V. The inhibition of organism growth with each diluted test formulation was rated visually by comparison with the organism developing on a non-treated control agar plate. Growth inhibition reported as percent control was rated in three categories as follows: 0% control, growth equivalent to that on non-treated agar; 50% control is sparse development and separated colonies; and 100% control, development of individual colonies was not apparent.
# Salmonella cholerasuis = test: as above; type: cell-based
# Excerpt: as §1, §2, §3, §4
# Salmonella gallinarum = test: as above; type: cell-based; settings: Salmonella enterica
# Excerpt: as §1, §2, §3, §4
# Staphylococcus aureus = test: as above; type: cell-based
# Excerpt: as §1, §2, §3, §4
# Streptococcus faecalis = test: as above; type: cell-based; settings: Enterococcus faecalis
# Excerpt: as §1, §2, §3, §4
# [1] = test system: Bordetella bronchiseptica; test: as above; type: cell-based
# Excerpt: as §1, §2, §3
# [2] = test system: Erysipelothrix rhusiopathiae; test: as above; type: cell-based
# Excerpt: as §1, §2, §3
# Salmonella typhimurium = test: as above; type: cell-based; settings: Salmonella enterica
# Excerpt: as §1, §2, §3
# Streptococcus agalactiae = test: as above; type: cell-based
# Excerpt: as §1, §2, §3
# Streptococcus group E = test: as above; type: cell-based
# Excerpt: as §1, §2, §3
# Vibrio coli = test: as above; type: cell-based; settings: Campylobacter coli
# Excerpt: as §1, §2, §3
# [3] = Example XII: 4 week chick feeding test, first set (Table VI); type: in vivo, broiler cross chicks; settings: 25g/T
# Excerpt: (§5) This example compares growth promotion activity of the product of Example I with other growth promotants at a concentration of 25 g/T in the Basal Ration described in Example VII. The other growth promotants include the product described in Example I of U.S. Pat. No. 3,542,784 -- Burch and quinoxaline-1,4-dioxide. Day old broiler cross chicks were weight equalized into groups of 8 chicks each, and four replicates of 8 chicks each were fed the experimental rations over a 4 week period.
# The growth promotion tests described in Example X were repeated with the additional testing the products of Examples II and III.
# [4] = Example XII: 4 week chick feeding test, repeat with five replicates (Table VII); type: in vivo, broiler cross chicks; settings: 25g/T
# [5] = Example X: 4 week chick feeding test, 25 g/T; type: in vivo, broiler cross chicks; settings: 25 g/T; Table IV
# Excerpt: as §5
# [6] = Example XI: 4 week chick feeding test, five replicates; type: in vivo, broiler cross chicks; settings: Table V
# Excerpt: as §5
# The growth promotion tests described in Example X were repeated with the exception that fives replicates of 8 chicks each were fed the formulations described in Table V for four weeks.
structure (smiles),measurement,setting,value
"O=[N+]([O-])c1ccc(C=Cc2nc(Nc3ccccc3O)c3ccccc3n2)o1 [Example III, 2-[2-(5-nitro-furyl)vinyl]-4-(o-hydroxyanilino)quinazoline]",inhibition at 0.125 ppm,Escherichia coli; 0.125 ppm,0%
same,inhibition at 0.25 ppm,Escherichia coli; 0.25 ppm,0%
same,inhibition at 0.5 ppm,Escherichia coli; 0.5 ppm,0%
same,inhibition at 1 ppm,Escherichia coli; 1 ppm,0%
same,inhibition at 2 ppm,Escherichia coli; 2 ppm,0%
same,inhibition at 4 ppm,Escherichia coli; 4 ppm,0%
same,inhibition at 8 ppm,Escherichia coli; 8 ppm,0%
same,inhibition at 16 ppm,Escherichia coli; 16 ppm,0%
same,inhibition at 32 ppm,Escherichia coli; 32 ppm,0%
same,inhibition at 64 ppm,Escherichia coli; 64 ppm,0%
same,inhibition at 0.125 ppm,Salmonella cholerasuis; 0.125 ppm,0%
same,inhibition at 0.25 ppm,Salmonella cholerasuis; 0.25 ppm,0%
same,inhibition at 0.5 ppm,Salmonella cholerasuis; 0.5 ppm,0%
same,inhibition at 1 ppm,Salmonella cholerasuis; 1 ppm,0%
same,inhibition at 2 ppm,Salmonella cholerasuis; 2 ppm,0%
same,inhibition at 4 ppm,Salmonella cholerasuis; 4 ppm,50%
same,inhibition at 8 ppm,Salmonella cholerasuis; 8 ppm,50%
same,inhibition at 16 ppm,Salmonella cholerasuis; 16 ppm,100%
same,inhibition at 32 ppm,Salmonella cholerasuis; 32 ppm,100%
same,inhibition at 64 ppm,Salmonella cholerasuis; 64 ppm,100%
same,inhibition at 0.125 ppm,Salmonella gallinarum; 0.125 ppm,0%
same,inhibition at 0.25 ppm,Salmonella gallinarum; 0.25 ppm,0%
same,inhibition at 0.5 ppm,Salmonella gallinarum; 0.5 ppm,0%
same,inhibition at 1 ppm,Salmonella gallinarum; 1 ppm,0%
same,inhibition at 2 ppm,Salmonella gallinarum; 2 ppm,0%
same,inhibition at 4 ppm,Salmonella gallinarum; 4 ppm,50%
same,inhibition at 8 ppm,Salmonella gallinarum; 8 ppm,50%
same,inhibition at 16 ppm,Salmonella gallinarum; 16 ppm,100%
same,inhibition at 32 ppm,Salmonella gallinarum; 32 ppm,100%
same,inhibition at 64 ppm,Salmonella gallinarum; 64 ppm,100%
same,inhibition at 0.125 ppm,Staphylococcus aureus; 0.125 ppm,0%
same,inhibition at 0.25 ppm,Staphylococcus aureus; 0.25 ppm,0%
same,inhibition at 0.5 ppm,Staphylococcus aureus; 0.5 ppm,0%
same,inhibition at 1 ppm,Staphylococcus aureus; 1 ppm,0%
same,inhibition at 2 ppm,Staphylococcus aureus; 2 ppm,0%
same,inhibition at 4 ppm,Staphylococcus aureus; 4 ppm,0%
same,inhibition at 8 ppm,Staphylococcus aureus; 8 ppm,0%
same,inhibition at 16 ppm,Staphylococcus aureus; 16 ppm,0%
same,inhibition at 32 ppm,Staphylococcus aureus; 32 ppm,0%
same,inhibition at 64 ppm,Staphylococcus aureus; 64 ppm,0%
same,inhibition at 0.125 ppm,Streptococcus faecalis; 0.125 ppm,0%
same,inhibition at 0.25 ppm,Streptococcus faecalis; 0.25 ppm,0%
same,inhibition at 0.5 ppm,Streptococcus faecalis; 0.5 ppm,50%
same,inhibition at 1 ppm,Streptococcus faecalis; 1 ppm,100%
same,inhibition at 2 ppm,Streptococcus faecalis; 2 ppm,100%
same,inhibition at 4 ppm,Streptococcus faecalis; 4 ppm,100%
same,inhibition at 8 ppm,Streptococcus faecalis; 8 ppm,100%
same,inhibition at 16 ppm,Streptococcus faecalis; 16 ppm,100%
same,inhibition at 32 ppm,Streptococcus faecalis; 32 ppm,100%
same,inhibition at 64 ppm,Streptococcus faecalis; 64 ppm,100%
same,inhibition at 0.125 ppm,[1]; 0.125 ppm,100%
same,inhibition at 0.25 ppm,[1]; 0.25 ppm,100%
same,inhibition at 0.5 ppm,[1]; 0.5 ppm,100%
same,inhibition at 1 ppm,[1]; 1 ppm,100%
same,inhibition at 2 ppm,[1]; 2 ppm,100%
same,inhibition at 4 ppm,[1]; 4 ppm,100%
same,inhibition at 8 ppm,[1]; 8 ppm,100%
same,inhibition at 16 ppm,[1]; 16 ppm,100%
same,inhibition at 32 ppm,[1]; 32 ppm,100%
same,inhibition at 64 ppm,[1]; 64 ppm,100%
same,inhibition at 0.125 ppm,[2]; 0.125 ppm,100%
same,inhibition at 0.25 ppm,[2]; 0.25 ppm,100%
same,inhibition at 0.5 ppm,[2]; 0.5 ppm,100%
same,inhibition at 1 ppm,[2]; 1 ppm,100%
same,inhibition at 2 ppm,[2]; 2 ppm,100%
same,inhibition at 4 ppm,[2]; 4 ppm,100%
same,inhibition at 8 ppm,[2]; 8 ppm,100%
same,inhibition at 16 ppm,[2]; 16 ppm,100%
same,inhibition at 32 ppm,[2]; 32 ppm,100%
same,inhibition at 64 ppm,[2]; 64 ppm,100%
same,inhibition at 0.125 ppm,Salmonella typhimurium; 0.125 ppm,0%
same,inhibition at 0.25 ppm,Salmonella typhimurium; 0.25 ppm,0%
same,inhibition at 0.5 ppm,Salmonella typhimurium; 0.5 ppm,0%
same,inhibition at 1 ppm,Salmonella typhimurium; 1 ppm,0%
same,inhibition at 2 ppm,Salmonella typhimurium; 2 ppm,0%
same,inhibition at 4 ppm,Salmonella typhimurium; 4 ppm,0%
same,inhibition at 8 ppm,Salmonella typhimurium; 8 ppm,0%
same,inhibition at 16 ppm,Salmonella typhimurium; 16 ppm,0%
same,inhibition at 32 ppm,Salmonella typhimurium; 32 ppm,0%
same,inhibition at 64 ppm,Salmonella typhimurium; 64 ppm,0%
same,inhibition at 0.125 ppm,Streptococcus agalactiae; 0.125 ppm,100%
same,inhibition at 0.25 ppm,Streptococcus agalactiae; 0.25 ppm,100%
same,inhibition at 0.5 ppm,Streptococcus agalactiae; 0.5 ppm,100%
same,inhibition at 1 ppm,Streptococcus agalactiae; 1 ppm,100%
same,inhibition at 2 ppm,Streptococcus agalactiae; 2 ppm,100%
same,inhibition at 4 ppm,Streptococcus agalactiae; 4 ppm,100%
same,inhibition at 8 ppm,Streptococcus agalactiae; 8 ppm,100%
same,inhibition at 16 ppm,Streptococcus agalactiae; 16 ppm,100%
same,inhibition at 32 ppm,Streptococcus agalactiae; 32 ppm,100%
same,inhibition at 64 ppm,Streptococcus agalactiae; 64 ppm,100%
same,inhibition at 0.125 ppm,Streptococcus group E; 0.125 ppm,100%
same,inhibition at 0.25 ppm,Streptococcus group E; 0.25 ppm,100%
same,inhibition at 0.5 ppm,Streptococcus group E; 0.5 ppm,100%
same,inhibition at 1 ppm,Streptococcus group E; 1 ppm,100%
same,inhibition at 2 ppm,Streptococcus group E; 2 ppm,100%
same,inhibition at 4 ppm,Streptococcus group E; 4 ppm,100%
same,inhibition at 8 ppm,Streptococcus group E; 8 ppm,100%
same,inhibition at 16 ppm,Streptococcus group E; 16 ppm,100%
same,inhibition at 32 ppm,Streptococcus group E; 32 ppm,100%
same,inhibition at 64 ppm,Streptococcus group E; 64 ppm,100%
same,inhibition at 0.125 ppm,Vibrio coli; 0.125 ppm,100%
same,inhibition at 0.25 ppm,Vibrio coli; 0.25 ppm,100%
same,inhibition at 0.5 ppm,Vibrio coli; 0.5 ppm,100%
same,inhibition at 1 ppm,Vibrio coli; 1 ppm,100%
same,inhibition at 2 ppm,Vibrio coli; 2 ppm,100%
same,inhibition at 4 ppm,Vibrio coli; 4 ppm,100%
same,inhibition at 8 ppm,Vibrio coli; 8 ppm,100%
same,inhibition at 16 ppm,Vibrio coli; 16 ppm,100%
same,inhibition at 32 ppm,Vibrio coli; 32 ppm,100%
same,inhibition at 64 ppm,Vibrio coli; 64 ppm,100%
same,Average 4 Week Performance: Feed Efficiency,[3],1.597
same,Average 4 Week Performance: Gain,[3],766.9 g
same,Improved Response Over Basal Ration: Feed Efficiency,[3],+2.3%
same,Improved Response Over Basal Ration: Gain,[3],+3.1%
same,Average 4 Week Performance: Feed Efficiency,[4],1.669
same,Average 4 Week Performance: Gain,[4],723.7 g
same,Improved Response Over Basal Ration: Feed Efficiency,[4],+6.5%
same,Improved Response Over Basal Ration: Gain,[4],+6.0%
"[O-][n+]1cc[n+]([O-])c2ccccc21 [Quinoxaline-1,4-dioxide, quinoxaline-1,4-dioxide]",growth rate and feed efficiency response (in words),[5],did not have any apparent effect
same,feed efficiency (in words),[6],improvement in feed efficiency
same,growth rate (in words),[6],questionable effect on growth
